Data: patent publication US7132252B2, “Methods for detecting the interaction of compounds with cytochrome P450 using optical molecular sensors” (Invitrogen Corporation, priority 1998, dated 2006)
Where “and” joins values, the source holds several entries; their conditions need not be identical. Identical values can stand only once.

Molecular target: T1, CYP 1A2 (Homo sapiens, UniProt P05177)
T1 sequence (P05177 1-516): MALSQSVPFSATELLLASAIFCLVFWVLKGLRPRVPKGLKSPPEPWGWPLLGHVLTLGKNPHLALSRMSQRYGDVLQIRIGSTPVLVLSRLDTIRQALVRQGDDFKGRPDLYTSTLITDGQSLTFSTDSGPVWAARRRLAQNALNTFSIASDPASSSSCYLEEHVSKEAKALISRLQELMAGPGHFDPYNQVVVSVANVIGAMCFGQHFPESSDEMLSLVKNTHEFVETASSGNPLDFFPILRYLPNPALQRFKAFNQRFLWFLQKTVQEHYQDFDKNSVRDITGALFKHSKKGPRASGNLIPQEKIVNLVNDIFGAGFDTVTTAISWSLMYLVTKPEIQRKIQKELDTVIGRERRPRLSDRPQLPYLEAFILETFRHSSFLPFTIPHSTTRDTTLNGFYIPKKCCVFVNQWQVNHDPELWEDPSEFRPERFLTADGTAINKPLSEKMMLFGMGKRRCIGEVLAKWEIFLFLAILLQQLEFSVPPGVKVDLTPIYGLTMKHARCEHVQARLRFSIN
Test: Kinetic properties of fluorogenic substrates with CYP 1A2
Assay type: biochemical
Settings: not given

Row | Molecule | type of kinetics
1 | CCOc1ccc2cc(C#N)c(=O)oc2c1 [3CEC, 3-Cyano-7-ethoxycoumarin, reference compound] | Michaelis-Menten

Same assay, conditions: turnover rate at 1.25 uM substrate

Row | Molecule | v (1.25 uM) [min⁻¹]
2 | CCOc1ccc2cc(C#N)c(=O)oc2c1 [3CEC, 3-Cyano-7-ethoxycoumarin, reference compound] | 1.73

Same assay, conditions: turnover rate at 10 uM substrate

Row | Molecule | v (10 uM) [min⁻¹]
3 | CCOc1ccc2cc(C#N)c(=O)oc2c1 [3CEC, 3-Cyano-7-ethoxycoumarin, reference compound] | 12.55

Molecular target: CYP2C9 (Homo sapiens, UniProt P11712)
Sequence (P11712 whole entry): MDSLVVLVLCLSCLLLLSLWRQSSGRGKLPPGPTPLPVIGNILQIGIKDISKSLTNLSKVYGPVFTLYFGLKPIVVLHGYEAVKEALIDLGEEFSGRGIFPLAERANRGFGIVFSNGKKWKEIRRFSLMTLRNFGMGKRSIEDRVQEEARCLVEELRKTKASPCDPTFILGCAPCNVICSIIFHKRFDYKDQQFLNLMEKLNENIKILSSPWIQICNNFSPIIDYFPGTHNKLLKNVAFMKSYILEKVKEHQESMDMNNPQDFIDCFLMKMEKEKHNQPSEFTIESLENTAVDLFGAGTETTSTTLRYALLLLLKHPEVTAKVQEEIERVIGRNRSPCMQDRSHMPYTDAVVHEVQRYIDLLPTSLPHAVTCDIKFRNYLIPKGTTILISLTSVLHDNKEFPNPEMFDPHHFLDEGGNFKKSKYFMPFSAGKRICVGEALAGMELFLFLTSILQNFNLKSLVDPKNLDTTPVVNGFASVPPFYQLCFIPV
Test: Kinetic properties of fluorogenic substrates with CYP 2C9
Assay type: biochemical
Settings: not given

Row | type of kinetics | Molecule
4 | Michaelis-Menten | 7-Methoxy-4-trifluoromethylcoumarin [MFC, reference compound]
5 | linear | COc1ccc2cc(C#N)c(=O)oc2c1 [3CMC, 3-cyano-7-methoxycoumarin, reference compound]
6 | Michaelis-Menten | COc1ccc(COc2ccc3nc4ccc(=O)cc-4oc3c2)cc1 [MOBR, Paramethoxybenzylresorufin]
7 | Michaelis-Menten | COCOc1ccc2cc(C#N)c(=O)oc2c1 [MOMCC]
8 | Michaelis-Menten | COCOc1ccc2c(C(F)(F)F)cc(=O)oc2c1 [MOMFC, 7-Methyloxymethyloxy-4-trifluorocoumarin]

Same assay, conditions: turnover rate at 1.25 uM substrate; — = too low to quantify

Row | v (1.25 uM) [min⁻¹] | Molecule
9 | 0.01 | 7-Methoxy-4-trifluoromethylcoumarin [MFC, reference compound]
10 | 0.00 | COc1ccc2cc(C#N)c(=O)oc2c1 [3CMC, 3-cyano-7-methoxycoumarin, reference compound]
11 | 0.00 | N#Cc1cc2ccc(OCc3ccccc3)cc2oc1=O [BCC, 7-Benzyloxy-3-cyanocoumarin, reference compound]
12 | 0.02 | COc1ccc(COc2ccc3nc4ccc(=O)cc-4oc3c2)cc1 [MOBR, Paramethoxybenzylresorufin]
13 | 0.01 | COCOc1ccc2cc(C#N)c(=O)oc2c1 [MOMCC]
14 | 0.00 | COCOc1ccc2c(C(F)(F)F)cc(=O)oc2c1 [MOMFC, 7-Methyloxymethyloxy-4-trifluorocoumarin]

Same assay, conditions: turnover rate at 10 uM substrate; — = too low to quantify

Row | v (10 uM) [min⁻¹] | Molecule
15 | 0.03 | 7-Methoxy-4-trifluoromethylcoumarin [MFC, reference compound]
16 | 0.04 | COc1ccc2cc(C#N)c(=O)oc2c1 [3CMC, 3-cyano-7-methoxycoumarin, reference compound]
17 | 0.00 | N#Cc1cc2ccc(OCc3ccccc3)cc2oc1=O [BCC, 7-Benzyloxy-3-cyanocoumarin, reference compound]
18 | 0.02 | COc1ccc(COc2ccc3nc4ccc(=O)cc-4oc3c2)cc1 [MOBR, Paramethoxybenzylresorufin]
19 | 0.07 | COCOc1ccc2cc(C#N)c(=O)oc2c1 [MOMCC]
20 | 0.07 | COCOc1ccc2c(C(F)(F)F)cc(=O)oc2c1 [MOMFC, 7-Methyloxymethyloxy-4-trifluorocoumarin]

Same assay, conditions: — = too low to quantify

Row | Km [µM] | kcat [s⁻¹] | Molecule
21 | 103 | 0.0067 | 7-Methoxy-4-trifluoromethylcoumarin [MFC, reference compound]
22 | 14.9 | 0.0017 | COCOc1ccc2c(C(F)(F)F)cc(=O)oc2c1 [MOMFC, 7-Methyloxymethyloxy-4-trifluorocoumarin]

Molecular target: CYP3A4 (Homo sapiens, UniProt P08684)
Sequence (P08684 whole entry): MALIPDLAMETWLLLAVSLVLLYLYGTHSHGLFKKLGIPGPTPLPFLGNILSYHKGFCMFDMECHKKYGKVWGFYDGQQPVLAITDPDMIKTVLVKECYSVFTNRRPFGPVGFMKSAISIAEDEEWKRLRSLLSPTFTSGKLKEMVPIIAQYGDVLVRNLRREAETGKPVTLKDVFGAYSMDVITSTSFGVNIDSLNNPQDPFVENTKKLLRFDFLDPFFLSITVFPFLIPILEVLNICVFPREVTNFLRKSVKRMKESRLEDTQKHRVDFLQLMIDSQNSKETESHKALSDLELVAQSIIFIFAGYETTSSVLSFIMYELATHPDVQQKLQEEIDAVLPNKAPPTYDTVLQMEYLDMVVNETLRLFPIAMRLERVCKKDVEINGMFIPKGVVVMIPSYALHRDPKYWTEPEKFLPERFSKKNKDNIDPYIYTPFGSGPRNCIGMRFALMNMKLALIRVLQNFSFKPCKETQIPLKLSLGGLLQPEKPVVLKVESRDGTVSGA
Test: Kinetic properties of fluorogenic substrates with CYP 3A4
Assay type: biochemical
Settings: not given
Excerpt: For further understanding these terms in the context of this invention, attention is directed to FIG. 4 and the analysis of FIG. 4.
(§1) (respectively, MFC and MR).

Row | type of kinetics | Molecule
23 | linear | O=c1cc(C(F)(F)F)c2ccc(OCc3ccccc3)cc2o1 [BFC, 7-Benzyloxy-4-trifluoromethylcoumarin, reference compound]
24 | Michaelis-Menten | CCOCOc1ccc2nc3ccc(=O)cc-3oc2c1 [EOMR]

Same assay, conditions: turnover rate at 1.25 uM substrate; — = too low to quantify

Row | v (1.25 uM) [min⁻¹] | Molecule
25 | 0.04 | O=c1cc(C(F)(F)F)c2ccc(OCc3ccccc3)cc2o1 [BFC, 7-Benzyloxy-4-trifluoromethylcoumarin, reference compound]
26 | 0.03 | CCOCOc1ccc2nc3ccc(=O)cc-3oc2c1 [EOMR]

Same assay, conditions: turnover rate at 10 uM substrate; — = too low to quantify

Row | v (10 uM) [min⁻¹] | Molecule
27 | 0.81 | O=c1cc(C(F)(F)F)c2ccc(OCc3ccccc3)cc2o1 [BFC, 7-Benzyloxy-4-trifluoromethylcoumarin, reference compound]
28 | 0.10 | CCOCOc1ccc2nc3ccc(=O)cc-3oc2c1 [EOMR]

Molecular target: T2, CYP 2B6 (Homo sapiens, UniProt P20813)
T2 sequence (P20813 1-491): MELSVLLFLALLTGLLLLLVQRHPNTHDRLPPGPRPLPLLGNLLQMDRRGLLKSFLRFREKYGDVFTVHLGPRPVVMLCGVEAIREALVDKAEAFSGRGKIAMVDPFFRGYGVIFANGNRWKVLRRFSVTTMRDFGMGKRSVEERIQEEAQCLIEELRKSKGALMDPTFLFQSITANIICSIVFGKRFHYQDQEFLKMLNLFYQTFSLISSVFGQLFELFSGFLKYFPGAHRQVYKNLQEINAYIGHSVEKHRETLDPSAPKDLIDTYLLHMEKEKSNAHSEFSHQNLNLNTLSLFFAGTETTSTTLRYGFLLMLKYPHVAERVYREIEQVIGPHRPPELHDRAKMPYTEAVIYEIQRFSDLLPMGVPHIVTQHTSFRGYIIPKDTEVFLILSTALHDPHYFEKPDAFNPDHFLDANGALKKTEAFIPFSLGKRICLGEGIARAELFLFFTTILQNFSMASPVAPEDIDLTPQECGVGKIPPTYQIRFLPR
Test: Kinetic properties of fluorogenic substrates with CYP 2B6
Assay type: biochemical
Settings: not given

Row | type of kinetics | Molecule
29 | Michaelis-Menten | 7-Methoxy-4-trifluoromethylcoumarin [MFC, reference compound]
30 | Michaelis-Menten | N#Cc1cc2ccc(OCc3ccccc3)cc2oc1=O [BCC, 7-Benzyloxy-3-cyanocoumarin, reference compound]
31 | Michaelis-Menten | COc1ccc(COc2ccc3nc4ccc(=O)cc-4oc3c2)cc1 [MOBR, Paramethoxybenzylresorufin]
32 | notMichaelis-Menten | COCOc1ccc2c(C(F)(F)F)cc(=O)oc2c1 [MOMFC, 7-Methyloxymethyloxy-4-trifluorocoumarin]

Same assay, conditions: human, CYP 2B6 isozyme; — = too low to quantify

Row | Km [µM] | Molecule
33 | 1.3 | N#Cc1cc2ccc(OCc3ccccc3)cc2oc1=O [BCC, 7-Benzyloxy-3-cyanocoumarin, reference compound]
34 | 0.01 | COc1ccc(COc2ccc3nc4ccc(=O)cc-4oc3c2)cc1 [MOBR, Paramethoxybenzylresorufin]

Same assay, conditions: turnover rate at 1.25 uM substrate; — = too low to quantify

Row | v (1.25 uM) [min⁻¹] | Molecule
35 | 1.63 | 7-Methoxy-4-trifluoromethylcoumarin [MFC, reference compound]
36 | 0.04 | N#Cc1cc2ccc(OCc3ccccc3)cc2oc1=O [BCC, 7-Benzyloxy-3-cyanocoumarin, reference compound]
37 | 0.08 | COc1ccc(COc2ccc3nc4ccc(=O)cc-4oc3c2)cc1 [MOBR, Paramethoxybenzylresorufin]
38 | 0.54 | COCOc1ccc2c(C(F)(F)F)cc(=O)oc2c1 [MOMFC, 7-Methyloxymethyloxy-4-trifluorocoumarin]

Same assay, conditions: turnover rate at 10 uM substrate; — = too low to quantify

Row | v (10 uM) [min⁻¹] | Molecule
39 | 2.53 | 7-Methoxy-4-trifluoromethylcoumarin [MFC, reference compound]
40 | 0.07 | N#Cc1cc2ccc(OCc3ccccc3)cc2oc1=O [BCC, 7-Benzyloxy-3-cyanocoumarin, reference compound]
41 | 0.10 | COc1ccc(COc2ccc3nc4ccc(=O)cc-4oc3c2)cc1 [MOBR, Paramethoxybenzylresorufin]
42 | 0.71 | COCOc1ccc2c(C(F)(F)F)cc(=O)oc2c1 [MOMFC, 7-Methyloxymethyloxy-4-trifluorocoumarin]

Same assay, conditions: — = too low to quantify

Row | Km [µM] | kcat [s⁻¹] | Molecule
43 | 1.4 | 0.0483 | 7-Methoxy-4-trifluoromethylcoumarin [MFC, reference compound]
44 |  | 0.0017 | N#Cc1cc2ccc(OCc3ccccc3)cc2oc1=O [BCC, 7-Benzyloxy-3-cyanocoumarin, reference compound]
45 |  | 0.0067 | COc1ccc(COc2ccc3nc4ccc(=O)cc-4oc3c2)cc1 [MOBR, Paramethoxybenzylresorufin]

Molecular target: CYP2D6 (Homo sapiens, UniProt P10635)
Sequence (P10635 whole entry): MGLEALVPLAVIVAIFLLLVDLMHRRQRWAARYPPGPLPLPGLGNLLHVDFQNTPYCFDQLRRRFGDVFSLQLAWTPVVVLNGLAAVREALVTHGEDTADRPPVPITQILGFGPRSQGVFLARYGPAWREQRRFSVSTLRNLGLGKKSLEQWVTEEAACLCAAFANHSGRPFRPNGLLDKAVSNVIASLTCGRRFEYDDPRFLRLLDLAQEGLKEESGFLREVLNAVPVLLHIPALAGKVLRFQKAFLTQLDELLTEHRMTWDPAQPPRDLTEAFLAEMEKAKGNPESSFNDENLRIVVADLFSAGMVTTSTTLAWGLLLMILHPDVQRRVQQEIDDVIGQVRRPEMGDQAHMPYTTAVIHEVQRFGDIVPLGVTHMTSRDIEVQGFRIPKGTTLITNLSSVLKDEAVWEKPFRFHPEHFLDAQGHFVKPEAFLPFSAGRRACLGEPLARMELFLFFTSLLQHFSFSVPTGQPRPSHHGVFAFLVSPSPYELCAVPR
Test: Kinetic properties of fluorogenic substrates with CYP 2D6
Assay type: biochemical
Settings: not given
Excerpt: as §1

Row | type of kinetics | Molecule
46 | Michaelis-Menten | 7-Methoxy-4-trifluoromethylcoumarin [MFC, reference compound]
47 | Michaelis-Menten | COc1ccc(COc2ccc3nc4ccc(=O)cc-4oc3c2)cc1 [MOBR, Paramethoxybenzylresorufin]

Same assay, conditions: turnover rate at 1.25 uM substrate; — = too low to quantify

Row | v (1.25 uM) | Molecule
48 | 0.03 min⁻¹ | 7-Methoxy-4-trifluoromethylcoumarin [MFC, reference compound]
49 | 0.0185 min⁻¹ and 0.02 min⁻¹ | COc1ccc(COc2ccc3nc4ccc(=O)cc-4oc3c2)cc1 [MOBR, Paramethoxybenzylresorufin]

Same assay, conditions: turnover rate at 10 uM substrate; — = too low to quantify

Row | v (10 uM) | Molecule
50 | 0.10 min⁻¹ | 7-Methoxy-4-trifluoromethylcoumarin [MFC, reference compound]
51 | 0.0409 min⁻¹ and 0.04 min⁻¹ | COc1ccc(COc2ccc3nc4ccc(=O)cc-4oc3c2)cc1 [MOBR, Paramethoxybenzylresorufin]

Same assay, conditions: — = too low to quantify

Row | Km [µM] | kcat [s⁻¹] | Molecule
52 | 10 | 0.005 | 7-Methoxy-4-trifluoromethylcoumarin [MFC, reference compound]

Molecular target: CYP2C19 (Homo sapiens, UniProt P33261)
Sequence (P33261 whole entry): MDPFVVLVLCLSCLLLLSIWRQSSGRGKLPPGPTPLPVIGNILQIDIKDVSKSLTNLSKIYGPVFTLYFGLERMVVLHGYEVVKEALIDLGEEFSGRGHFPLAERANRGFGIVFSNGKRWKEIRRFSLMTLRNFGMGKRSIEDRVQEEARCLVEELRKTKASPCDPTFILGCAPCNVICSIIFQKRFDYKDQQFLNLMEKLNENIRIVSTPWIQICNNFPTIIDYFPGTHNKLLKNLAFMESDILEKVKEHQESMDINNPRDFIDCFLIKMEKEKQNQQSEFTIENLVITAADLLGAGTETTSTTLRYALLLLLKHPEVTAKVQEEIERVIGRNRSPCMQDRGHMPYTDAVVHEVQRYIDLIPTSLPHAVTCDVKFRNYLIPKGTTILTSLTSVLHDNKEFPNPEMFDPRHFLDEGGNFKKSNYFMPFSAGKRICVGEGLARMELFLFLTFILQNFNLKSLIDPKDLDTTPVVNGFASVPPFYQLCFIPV
Test: Kinetic properties of fluorogenic substrates with CYP 2C19
Assay type: biochemical
Settings: not given

Row | type of kinetics | Molecule
53 | linear | COc1ccc2cc(C#N)c(=O)oc2c1 [3CMC, 3-cyano-7-methoxycoumarin, reference compound]
54 | Michaelis-Menten | N#Cc1cc2ccc(OCc3ccccc3)cc2oc1=O [BCC, 7-Benzyloxy-3-cyanocoumarin, reference compound]
55 | not MMK | COc1ccc(COc2ccc3nc4ccc(=O)cc-4oc3c2)cc1 [MOBR, Paramethoxybenzylresorufin]
56 | Michaelis-Menten | COCOc1ccc2cc(C#N)c(=O)oc2c1 [MOMCC]

Row | Molecule | type of kinetics
57 | CCOc1ccc2cc(C#N)c(=O)oc2c1 [3CEC, 3-Cyano-7-ethoxycoumarin, reference compound] | Michaelis-Menten

Same assay, conditions: turnover rate at 1.25 uM substrate; — = too low to quantify

Row | v (1.25 uM) [min⁻¹] | Molecule
58 | 0.01 | COc1ccc2cc(C#N)c(=O)oc2c1 [3CMC, 3-cyano-7-methoxycoumarin, reference compound]
59 | 0.02 | N#Cc1cc2ccc(OCc3ccccc3)cc2oc1=O [BCC, 7-Benzyloxy-3-cyanocoumarin, reference compound]
60 | 1.26 | COc1ccc(COc2ccc3nc4ccc(=O)cc-4oc3c2)cc1 [MOBR, Paramethoxybenzylresorufin]
61 | 0.14 | COCOc1ccc2cc(C#N)c(=O)oc2c1 [MOMCC]

Row | Molecule | v (1.25 uM) [min⁻¹]
62 | CCOc1ccc2cc(C#N)c(=O)oc2c1 [3CEC, 3-Cyano-7-ethoxycoumarin, reference compound] | 0.05

Same assay, conditions: turnover rate at 10 uM substrate; — = too low to quantify

Row | v (10 uM) [min⁻¹] | Molecule
63 | 0.07 | COc1ccc2cc(C#N)c(=O)oc2c1 [3CMC, 3-cyano-7-methoxycoumarin, reference compound]
64 | 0.06 | N#Cc1cc2ccc(OCc3ccccc3)cc2oc1=O [BCC, 7-Benzyloxy-3-cyanocoumarin, reference compound]
65 | 0.69 | COc1ccc(COc2ccc3nc4ccc(=O)cc-4oc3c2)cc1 [MOBR, Paramethoxybenzylresorufin]
66 | 0.38 | COCOc1ccc2cc(C#N)c(=O)oc2c1 [MOMCC]

Row | Molecule | v (10 uM) [min⁻¹]
67 | CCOc1ccc2cc(C#N)c(=O)oc2c1 [3CEC, 3-Cyano-7-ethoxycoumarin, reference compound] | 0.34
